PMC10525585, “Evaluation of the Antibacterial Effect of Aurone-Derived Triazoles on Staphylococcus aureus” (Antibiotics, 2023)

What was measured:
Hemolysis assay = assay type: cell-based, human; settings: human, human red blood cells (0.5% final suspension, single donor), 1 h, 37 °C, read-out: Hemolysis by AT Compounds (%)
Protocol: (§1) A single donor-specific blood sample was acquired from Innovative Research Inc. (Novi, MI, USA) for the assay (donor#:1WB3ALS40ML-36517). A volume of 1–2 mL of the human red blood cells (hRBCs in Alsevier’s solution) was mixed with 8–10 mL of Phosphate-Buffered Saline (PBS) in a 15 mL centrifuge tube to pellet by centrifugation at 1400× g in a swinging bucket centrifuge for 10 min. The supernatant was then removed, and the cells were washed with 10 mL of PBS two additional times. The cells were resuspended in PBS to achieve a final 1% solution of hRBCs.
(§2) The wells of a 96-well U-bottom plate that contained AT compounds were prefilled with 50 µL of PBS. A 2-fold dilution of AT compounds was prepared. For each triplicate, an initial AT dilution was prepared using 6 µL of AT stock solution in 144 µL of PBS. This initial mixture was diluted 2-fold on a 96-well plate following the method described above for a final volume of 50 µL of diluted AT in each well. As a final step, 50 µL of the 1% hRBC solution was added to each well, except the blank wells. PBS and hRBCs were used for negative control, whereas hRBCs with 1% and 0.1% Triton-X100 were used as positive controls. After 1 h of incubation at 37 °C in a humidified incubator, the plate was centrifuged at 1000 rpm for 10 min in a Thermo Sorvall Legend XTR centrifuge with a TX-750 swinging bucket rotor (Thermo Fisher Scientific, Waltham, MA, USA) to pellet intact cells. After centrifugation, 50 µL of supernatant was transferred from each well into a new 96-well U-bottom plate and hemolysis of the hRBCs detected in a plate-reader for absorbance at 405 nm. Hemolytic activity for all concentrations of the ATs was computed following this formula:(1) % hemolysis=OD405nmsample− OD405nmnegative control/OD405nmpositivecontrol[…]

human red blood cells = assay: Hemolysis assay; assay type: cell-based; settings: overall statement
Protocol: as §1, §2

MRSA [1] = assay: Growth curve assay (Bioscreen C, 48 h); assay type: cell-based, Staphylococcus aureus; settings: 48 h growth curve; for strength of growth inhibition: concentrations closer to the IC50 values (5–25 µM)
Protocol: (§3) This suspension was diluted 1:20 in TSB.
(§4) For the growth curve assay, honeycomb plates (Growth Curves USA, Piscataway, NJ, USA) were used with TSB as the growth medium. Using bacterial cultures as described above, growth curve measurements were carried out in quintuplicates. For positive growth controls, wells with 10 µL of bacteria mixed into 90 µL of TSB were used. For quintuplicate treatment wells, 4-fold dilutions of AT compounds were used such that AT concentrations of 100, 25, 6.25, and 1.56 µM were tested. A 10 µL inoculum of bacteria prepared as described above was added to each dilution of the ATs. The growth in each well was measured in 15 min intervals for 48 h at 37 °C in the Bioscreen C instrument. The results were processed and analyzed with Microsoft Excel (version 2201) and GraphPad Prism 9.3.1 software (GraphPad by Dotmatics, Boston, MA, USA).

MSSA [2] = assay: Growth curve assay (Bioscreen C, 48 h); assay type: cell-based, Staphylococcus aureus; settings: 48 h growth curve; for strength of growth inhibition: concentrations closer to the IC50 values (5–25 µM)
Protocol: as §3, §4

pre-formed MSSA biofilms = assay: Biofilm assay (BacLight live/dead confocal imaging); assay type: cell-based, Staphylococcus aureus; settings: for Fold Change in Dead Cells / Fold Change in Total Cells / Percent Change in Dead Cells / Percent Change in Total Cells: versus mock-treated control; for Dead Cell Count / Living Cell Count / Total Cell Count: 48 h biofilm treated 24 h with 100 µM AT; for Dead Cell Count: control 96; for Living Cell Count: control 2124; for Total Cell Count: control 2220
Protocol: To prepare AT-treated cultures, overnight bacterial cultures were used (adjusted to 1 × 10^8 CFU/mL) in BHI medium to grow biofilm in 35 mm MatTEK dishes with a 20 mm glass bottom well by adding 1500 µL of overnight bacteria per dish. The dishes were incubated at 37 °C in a humidified incubator for 48 h. The old media was refreshed by adding 1500 µL of BHI for the control, or the AT mixture (15 µL of AT stock with 1485 µL BHI to achieve 100 µM AT concentration), or DMSO mixture (15 µL DMSO with 1485 µL BHI) for negative control. The dishes were then incubated in a humidified incubator for an additional 24 h at 37 °C. The media was removed, and cells were washed twice with 500 µL PBS, followed by the addition of 50 µL BacLight^TM with 250 µL PBS for 15 min. Biofilms were imaged using a Zeiss AxioObserver microscope with an LSM700 confocal module (Carl Zeiss Microscopy, White Plains, NY, USA). To assess biofilm disruption, Fiji software version 2.14.0 was used. Initially, raw microscope images were imported, separating the color channels, as dead cells were stained fluorescent red and living cells were stained green. To allow particle counts, the color saturation threshold was set using the RenyiEntropy option to clear the images from potential noise. This step was followed by watershed separation, which separates potentially overlapping cells, and then particle analysis was completed using the 0.5–1.5 micron size as a guide. Biofilm disruption was quantified both by reductions in total bacterial cell numbers and increases in dead cell numbers.

MRSA [3] = assay: Checkerboard assay with antibiotics; assay type: cell-based, Staphylococcus aureus; settings: smallest ratio; <0.5 synergy, 0.5–4 no interaction, >4 antagonism
Protocol: (§5) This preparation for the checkerboard assay was analogous to the antibacterial assay described above in that the standard (5 × 10^5 CFU/mL) concentration of bacteria in media was mixed with 2-fold dilutions of antibacterial agents to verify their inhibition potential. […] Control wells contained 10 µL of bacteria with 90 µL of CAMHB, and the negative control was bacteria in 1% DMSO and CAMHB. Incubation, staining with PrestoBlue^TM, and assessing cell viability are as described for the antibacterial assay above.

MSSA [4] = assay: Checkerboard assay with antibiotics; assay type: cell-based, Staphylococcus aureus; settings: smallest ratio; <0.5 synergy, 0.5–4 no interaction, >4 antagonism
Protocol: as §5

Compound: O=C(c1ccccc1O)c1n[nH]nc1-c1ccc(Cl)cc1 [AT106]
- hemolysis at 1 h, 3.125 µM (Hemolysis assay): 0.6%
- hemolysis at 1 h, 6.25 µM (Hemolysis assay): -0.1%
- hemolysis at 1 h, 12.5 µM (Hemolysis assay): 1.2%
- hemolysis at 1 h, 25 µM (Hemolysis assay): 1.2%
- hemolysis at 1 h, 50 µM (Hemolysis assay): -0.3%
- hemolysis at 1 h, 100 µM (Hemolysis assay): 1.1%
- hemolytic activity for human erythrocytes (human red blood cells): not hemolytic
- strength of growth inhibition (MRSA [1]): weaker inhibitors
- strength of growth inhibition (MSSA [2]): weaker inhibitors
- Fold Change in Dead Cells (pre-formed MSSA biofilms; 100 µM AT, 24 h): -0.75
- Fold Change in Total Cells (pre-formed MSSA biofilms; 100 µM AT, 24 h): -0.8914
- Percent Change in Dead Cells (pre-formed MSSA biofilms; 100 µM AT, 24 h): -75.00%
- Percent Change in Total Cells (pre-formed MSSA biofilms; 100 µM AT, 24 h): -89.14%
- Dead Cell Count (pre-formed MSSA biofilms): 24
- Living Cell Count (pre-formed MSSA biofilms): 217
- Total Cell Count (pre-formed MSSA biofilms): 241
- FICi with Daptomycin, MRSA (MRSA [3]): 0.05
- FICi with Vancomycin, MRSA (MRSA [3]): 0.52
- FICi with Daptomycin, MSSA (MSSA [4]): 0.25
- FICi with Vancomycin, MSSA (MSSA [4]): 0.57

Compound: O=C(c1ccccc1O)c1n[nH]nc1-c1cccc(C(F)(F)F)c1 [AT116]
- hemolysis at 1 h, 3.125 µM (Hemolysis assay): 0.8%
- hemolysis at 1 h, 6.25 µM (Hemolysis assay): -0.7%
- hemolysis at 1 h, 12.5 µM (Hemolysis assay): 2.3%
- hemolysis at 1 h, 25 µM (Hemolysis assay): 2.1%
- hemolysis at 1 h, 50 µM (Hemolysis assay): 2.6%
- hemolysis at 1 h, 100 µM (Hemolysis assay): 3.5%
- hemolytic activity for human erythrocytes (human red blood cells): not hemolytic
- strength of growth inhibition (MRSA [1]): weaker inhibitors
- strength of growth inhibition (MSSA [2]): weaker inhibitors
- Fold Change in Dead Cells (pre-formed MSSA biofilms; 100 µM AT, 24 h): 2.417
- Fold Change in Total Cells (pre-formed MSSA biofilms; 100 µM AT, 24 h): -0.4212
- Percent Change in Dead Cells (pre-formed MSSA biofilms; 100 µM AT, 24 h): 241.67%
- Percent Change in Total Cells (pre-formed MSSA biofilms; 100 µM AT, 24 h): -42.12%
- Dead Cell Count (pre-formed MSSA biofilms): 328
- Living Cell Count (pre-formed MSSA biofilms): 957
- Total Cell Count (pre-formed MSSA biofilms): 1285
- disruption of MSSA biofilms (pre-formed MSSA biofilms; pre-formed biofilm, 100 µM AT, 24 h): successfully disrupted MSSA biofilms
- FICi with Daptomycin, MRSA (MRSA [3]): 0.05
- FICi with Vancomycin, MRSA (MRSA [3]): 1.03
- FICi with Daptomycin, MSSA (MSSA [4]): 0.28

Compound: O=C(c1ccccc1O)c1n[nH]nc1-c1ccc(Br)s1 [AT137]
- hemolysis at 1 h, 3.125 µM (Hemolysis assay): -2.6%
- hemolysis at 1 h, 6.25 µM (Hemolysis assay): -0.5%
- hemolysis at 1 h, 12.5 µM (Hemolysis assay): -0.8%
- hemolysis at 1 h, 25 µM (Hemolysis assay): 2.7%
- hemolysis at 1 h, 50 µM (Hemolysis assay): 1.4%
- hemolysis at 1 h, 100 µM (Hemolysis assay): 1.8%
- hemolytic activity for human erythrocytes (human red blood cells): not hemolytic
- relative inhibition of MRSA growth (MRSA [1]; 0–100 µM, among the four ATs): greatest inhibition
- blocking of bacterial growth (MRSA [1]; concentrations below 10 µM): successful in blocking bacterial growth
- strength of growth inhibition (MRSA [1]): strong inhibitors
- blocking of bacterial growth (MSSA [2]; concentrations below 10 µM): successful in blocking bacterial growth
- strength of growth inhibition (MSSA [2]): strong inhibitors
- Fold Change in Dead Cells (pre-formed MSSA biofilms; 100 µM AT, 24 h): -0.8021
- Fold Change in Total Cells (pre-formed MSSA biofilms; 100 µM AT, 24 h): -0.9347
- Percent Change in Dead Cells (pre-formed MSSA biofilms; 100 µM AT, 24 h): -80.21%
- Percent Change in Total Cells (pre-formed MSSA biofilms; 100 µM AT, 24 h): -93.47%
- Dead Cell Count (pre-formed MSSA biofilms): 19
- Living Cell Count (pre-formed MSSA biofilms): 126
- Total Cell Count (pre-formed MSSA biofilms): 145
- FICi with Daptomycin, MRSA (MRSA [3]): 0.19
- FICi with Vancomycin, MRSA (MRSA [3]): 1.13
- FICi with Daptomycin, MSSA (MSSA [4]): 0.38
- FICi with Vancomycin, MSSA (MSSA [4]): 1.5
